We go through ten compounds from ChEMBL document CHEMBL1201862, “PubChem BioAssay data set” (2004).

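A five-concentration, 48-hour dose response in 96-well plates underlies each endpoint, interpolated linearly between surrounding concentrations. At the GI50, growth is halved.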 Calls of active or inactive are those of the source. No stated cut-off is given here; in the data, active = GI50 up to about 1.1 µM and inactive = higher.

Some test systems named below: M14; SF-268; SK-MEL-2; MCF7; SR; EKVX; BT-549; KM12; UACC-62; MDA-MB-231; HCT-116; OVCAR-5; HT-29; DU-145; HCC 2998; TK-10; SK-MEL-5; SF-539; HOP-92.
Common to all, as to assay: NCI-60 cell line screen, 48 h

For `O=[N+]([O-])c1cc2ccc1OCc1cccc(n1)COc1ccc(cc1[N+](=O)[O-])/C=N\CCCCCCCC/N=C\2`, the GI50 with M14, with SF-268, in the assay with SK-MEL-2, with MCF7, with SR and with EKVX was > 100 µM (inactive) in each case. The GI50 in the assay with BT-549, in the assay on KM12, with UACC-62, in the assay on MDA-MB-231, in the assay with HCT-116 and with OVCAR-5 was > 100 µM (inactive) each time. Also, the GI50 in the assay with HT-29, in the assay on DU-145, in the assay with HCC 2998, in the assay with TK-10, in the assay with SK-MEL-5 and in the assay on SF-539 was > 100 µM (inactive) each time. Besides, in the assay on HOP-92, the GI50 is > 100 µM (inactive).
On to `CCOC(=O)[C@@H](Cc1ccc(CCl)cc1)NC(C)=O`, for which the GI50 in the assay on M14 was 24.8 µM (inactive); in the assay with SF-268, 24 µM (inactive); with SK-MEL-2, 17.1 µM (inactive); in the assay on MCF7, 26.1 µM (inactive); with SR it was 29.4 µM (inactive); in the assay with EKVX it was 22.2 µM (inactive). For the same compound, the GI50 is 31.1 µM (inactive) with BT-549; 20.2 µM (inactive) in the assay on KM12; 15.9 µM (inactive) in the assay with UACC-62; 27.1 µM (inactive) in the assay with MDA-MB-231; 30.3 µM (inactive) in the assay on HCT-116; 20.6 µM (inactive) in the assay on OVCAR-5. Further, the GI50 with HT-29 is 75.3 µM (inactive); with DU-145, 38.1 µM (inactive); with HCC 2998, 17.7 µM (inactive); with TK-10 it was 4.71 µM (inactive); with SK-MEL-5, 16 µM (inactive); in the assay on SF-539, 18.3 µM (inactive). Besides, the GI50 with HOP-92 is 23.4 µM (inactive).
As to `O=C(c1ccccc1)C1N=NCC1c1ccc([N+](=O)[O-])cc1` (stereo not given), the GI50 with M14 is 48.9 µM (inactive); in the assay with SF-268, 40.5 µM (inactive); with SK-MEL-2, 46.9 µM (inactive); with MCF7, 22.4 µM (inactive); in the assay on SR it was 27.9 µM (inactive); in the assay on EKVX, 89.1 µM (inactive). Moreover, the GI50 with BT-549 was 24.2 µM (inactive); in the assay with KM12 it was 45.4 µM (inactive); in the assay on UACC-62 it was 49.4 µM (inactive); with MDA-MB-231, > 100 µM (inactive); in the assay with HCT-116 it was 51.8 µM (inactive); in the assay on OVCAR-5 it was > 100 µM (inactive). Also, the GI50 was 36.6 µM (inactive) in the assay with HT-29; 18.4 µM (inactive) in the assay on DU-145; > 100 µM (inactive) in the assay with HCC 2998; 34 µM (inactive) in the assay on TK-10; 26.1 µM (inactive) in the assay with SK-MEL-5; 58.3 µM (inactive) in the assay with SF-539. The GI50 in the assay with HOP-92 is 23.1 µM (inactive).
`CCCCCCCCCCCCCC[C@@H](O)[C@H]1CC[C@H]([C@H]2CC[C@H]([C@H](O)CCCCCC[C@@H](O)CC3=C[C@H](C)OC3=O)O2)O1`: the GI50 was > 25 µM (inactive) in the assay on M14; > 25 µM (inactive) with SF-268; > 25 µM (inactive) with SK-MEL-2; > 15.3 µM (inactive) in the assay on MCF7; 1.03 µM (active) with SR; > 7.52 µM (inactive) with EKVX. The GI50 with BT-549 is > 25 µM (inactive); in the assay on KM12, > 25 µM (inactive); with UACC-62, 1.54 µM (inactive); in the assay with MDA-MB-231 it was > 25 µM (inactive); in the assay with HCT-116, 0.203 µM (active); in the assay on OVCAR-5 it was > 25 µM (inactive). Besides, the GI50 with HT-29 was 1.7 µM (inactive); in the assay with DU-145, 4.24 µM (inactive); in the assay on HCC 2998, > 25 µM (inactive); with TK-10, > 25 µM (inactive); with SK-MEL-5 it was 0.117 µM (active); in the assay with SF-539, > 13.8 µM (inactive). The GI50 in the assay on HOP-92 was 3.34 µM (inactive).
For the compound `NC(=O)C(=CNC(=S)c1ccncc1)C(N)=O`, the GI50 with M14, in the assay with SF-268, with SK-MEL-2, with MCF7, with SR and in the assay on EKVX was > 100 µM (inactive) each time. Moreover, the GI50 in the assay on BT-549, in the assay on KM12, in the assay with UACC-62, with MDA-MB-231, with HCT-116 and in the assay on OVCAR-5 was > 100 µM (inactive) throughout. Moreover, the GI50 in the assay on HT-29, in the assay on DU-145, in the assay with HCC 2998, in the assay on TK-10, in the assay with SK-MEL-5 and in the assay with SF-539 was > 100 µM (inactive) throughout. Moreover, in the assay on HOP-92, the GI50 was > 100 µM (inactive).
For the compound `CCOC(=O)CCC(NC(=O)c1ccc(Nc2cnc3ccc(C(F)(F)F)cc3n2)cc1)C(=O)OCC` (stereo not given), the GI50 in the assay on M14 is > 100 µM (inactive); in the assay with SF-268, 15 µM (inactive); with SK-MEL-2, > 96.4 µM (inactive); with MCF7 it was 27.9 µM (inactive); with SR, > 100 µM (inactive); in the assay with EKVX, 30.1 µM (inactive). In addition, the GI50 is 20.9 µM (inactive) in the assay on BT-549; 24.2 µM (inactive) with KM12; 20.6 µM (inactive) with UACC-62; 4.59 µM (inactive) in the assay with MDA-MB-231; 14.5 µM (inactive) with HCT-116; > 100 µM (inactive) in the assay on OVCAR-5. Besides, the GI50 in the assay with HT-29 was > 80.5 µM (inactive); in the assay on DU-145, > 26 µM (inactive); in the assay on HCC 2998, 81.1 µM (inactive); in the assay with TK-10, 4.97 µM (inactive); with SK-MEL-5 it was > 64.7 µM (inactive); with SF-539 it was 13.3 µM (inactive). Also, the GI50 in the assay with HOP-92 is 8.36 µM (inactive).
`O=S(=O)(c1cc(Cl)ccc1Cl)n1ccnc1`: the GI50 with M14 was 30.3 µM (inactive); in the assay with SF-268, 45.1 µM (inactive); in the assay with SK-MEL-2 it was 30.5 µM (inactive); with MCF7, 35 µM (inactive); in the assay on SR, 25.4 µM (inactive); in the assay with EKVX, 61.2 µM (inactive). In addition, the GI50 with BT-549 is 35.4 µM (inactive); in the assay on KM12, 33.6 µM (inactive); in the assay on UACC-62, 33.1 µM (inactive); in the assay with MDA-MB-231, 23.4 µM (inactive); in the assay with HCT-116, 31.3 µM (inactive); in the assay with OVCAR-5, 35.5 µM (inactive). For the same compound, the GI50 in the assay with HT-29 is 29.2 µM (inactive); in the assay on DU-145, 35.4 µM (inactive); in the assay with HCC 2998, 15.8 µM (inactive); with TK-10, 24.1 µM (inactive); in the assay with SK-MEL-5 it was 18.8 µM (inactive); in the assay on SF-539, 17.4 µM (inactive). Besides, the GI50 with HOP-92 is 39.9 µM (inactive).
As to `Cc1cc2nc(N3C(=O)/C(=C/c4ccc(Cl)cc4)N=C3c3ccccc3)sc2cc1C`, the GI50 was 32.7 µM (inactive) in the assay on M14; 30 µM (inactive) in the assay with SF-268; 26.5 µM (inactive) in the assay on SK-MEL-2; 23.4 µM (inactive) in the assay on MCF7; 46.5 µM (inactive) in the assay with SR; 24.4 µM (inactive) in the assay on EKVX. Also, the GI50 in the assay on BT-549 was 26.4 µM (inactive); with KM12 it was 16.3 µM (inactive); in the assay on UACC-62 it was 30.8 µM (inactive); in the assay on MDA-MB-231 it was 50 µM (inactive); with HCT-116, 18.4 µM (inactive); with OVCAR-5, 24.2 µM (inactive). The GI50 in the assay with HT-29 is 23.9 µM (inactive); with DU-145, 50.8 µM (inactive); in the assay with HCC 2998, 24.2 µM (inactive); in the assay with TK-10, 39.3 µM (inactive); in the assay with SK-MEL-5, 16.1 µM (inactive); in the assay with SF-539, 18.7 µM (inactive). In addition, the GI50 in the assay with HOP-92 was 8.55 µM (inactive).
With `COCC12CCC(OC)C34C5CC6(O)C(OC)C=C(C5C6OC(=O)c5ccccc5)C(C(OC)C13)C4N(C)C2` (stereo not given), the GI50 in the assay on M14, in the assay with SF-268, with SK-MEL-2, with MCF7, in the assay on SR and in the assay with EKVX was > 100 µM (inactive) in each case. For the same compound, the GI50 in the assay with BT-549, with KM12, in the assay on UACC-62, in the assay with MDA-MB-231, in the assay with HCT-116 and with OVCAR-5 was > 100 µM (inactive) each time. Moreover, the GI50 in the assay with HT-29, in the assay with DU-145, with HCC 2998, with TK-10, in the assay on SK-MEL-5 and with SF-539 was > 100 µM (inactive) each time. Besides, the GI50 in the assay with HOP-92 is > 100 µM (inactive).
Turning to `O=C(c1ccccc1)c1ccc(N2C(=O)/C(=C/c3cccc([N+](=O)[O-])c3)N=C2c2ccccc2)c(N2C(=O)/C(=C/c3cccc([N+](=O)[O-])c3)N=C2c2ccccc2)c1`, the GI50 is 14.4 µM (inactive) in the assay on M14; 62.5 µM (inactive) in the assay on SF-268; 26.4 µM (inactive) in the assay on SK-MEL-2; 26.7 µM (inactive) in the assay on MCF7; 23.4 µM (inactive) in the assay with SR; > 100 µM (inactive) in the assay on EKVX. The GI50 with BT-549 is 35.5 µM (inactive); in the assay with KM12, 11 µM (inactive); in the assay on UACC-62, 20.8 µM (inactive); in the assay with MDA-MB-231 it was > 100 µM (inactive); with HCT-116, 39.4 µM (inactive); in the assay on OVCAR-5, > 100 µM (inactive). In addition, the GI50 in the assay with HT-29 is 41.9 µM (inactive); in the assay on DU-145 it was 51.9 µM (inactive); with HCC 2998, 15 µM (inactive); with TK-10, 42.5 µM (inactive); in the assay with SK-MEL-5, 2.34 µM (inactive); in the assay on SF-539, 26.3 µM (inactive). Moreover, in the assay on HOP-92, the GI50 was 82.2 µM (inactive).
